Experiments:
[1] = tested on: rat ACL gene (GenBank ID: J05210); test: Liver ACL expression analyzed with DNA chips, Experiment 1 (normal Wistar rats); format: in vivo
Experimental: The effect of nateglinide on the expression of liver ACL was analyzed with DNA chips. In Experiment 1, methylcellulose or 50 mg/kg of nateglinide suspended in methylcellulose was orally administered to normal Wistar rats fasted overnight. One hour after the administration, the liver was taken from each rat and freezed. The total RNA was extracted with RNeasy kit (Qiagen Co. Ltd). Biotinylated cRNA probe was prepared by a standard method and then it was hybridized to rat genome U34 array (Affymetrix Co. Ltd). The amount of cRNA hybridized to rat ACL gene (GenBank ID: J05210) was analyzed with Microarray Suite 5.0 software (Affymetrix Co. Ltd).

[2] = tested on: rat ACL gene (GenBank ID: J05210); test: Liver ACL expression analyzed with DNA chips, Experiment 2 (GK rats); format: in vivo
Experimental: In Experiment 1, methylcellulose or 50 mg/kg of nateglinide suspended in methylcellulose was orally administered to normal Wistar rats fasted overnight. One hour after the administration, the liver was taken from each rat and freezed. The total RNA was extracted with RNeasy kit (Qiagen Co. Ltd). Biotinylated cRNA probe was prepared by a standard method and then it was hybridized to rat genome U34 array (Affymetrix Co. Ltd). The amount of cRNA hybridized to rat ACL gene (GenBank ID: J05210) was analyzed with Microarray Suite 5.0 software (Affymetrix Co. Ltd). Also in Experiment 2, 1 g/kg of glucose, 50 mg/kg of nateglinide or both of glucose and nateglinide were orally administered to Wistar rats and GK rats fasted overnight. One hour after the administration, the liver was taken from each rat and the expression of ACL level was analyzed with DNA chips in the same manner as that in Experiment 1.

[3] = Insulin level in GK rat portal vein after nateglinide; format: in vivo; conditions: after administration
[4] = Blood GOT and GPT as indices of liver function in patients with type 2 diabetes, 12 weeks oral nateglinide; format: in vivo, human; conditions: for GOT, change (0 to 12 weeks) / GPT, change (0 to 12 weeks): decrease, p<0.05
Experimental: Nateglinide was orally administered to patients with type 2 diabetes three times a day in a dose of usually […] before meals for 12 weeks. Blood GOT and GPT concentrations were determined as indices of the liver function in 0 week and 12th week. In analysis 1, the results obtained by the oral administration of nateglinide to 53 patients with type 2 diabetes each having fatty liver for 12 weeks were analyzed. In analysis 2, the results obtained by the oral administration of nateglinide to 16 cases of type-2 diabetes having liver disorders (GOT, GPT≧51 IU/L) were analyzed.

[5] = after 30 days' administration; patients without liver diseases (Drugs R&D 2(2):123 (1999)); cited from earlier work
[6] = cited from earlier work
[7] = analysis 1: 53 type 2 diabetes patients with fatty liver
[8] = analysis 1: type 2 diabetes patients with fatty liver, 12 weeks
[9] = analysis 2: 16 cases of type-2 diabetes with liver disorders
[10] = analysis 2: type-2 diabetes with liver disorders, 12 weeks

CC(C)[C@H]1CC[C@H](C(=O)N[C@H](Cc2ccccc2)C(=O)O)CC1 [nateglinide, (−)-N-(trans-4-isopropylcyclohexanecarbonyl)-D-phenylalanine]
Expression level of liver ACL (cRNA hybridized to rat ACL gene), Analysis 1 ([1]; Wistar rats fasted overnight, 50 mg/kg oral, no glucose, liver 1 h after, methylcellulose control 96.2): 144.4 | Expression level of liver ACL (cRNA hybridized to rat ACL gene), Analysis 2 ([1]; Wistar rats fasted overnight, 50 mg/kg oral, no glucose, liver 1 h after, methylcellulose control 459.3): 543.6 | Suppression of liver ACL mRNA level ([1]; normal Wistar rats): no significant suppression | Expression level of liver ACL (cRNA hybridized to rat ACL gene), Analysis 1 ([2]; Experiment 2 group 5, GK rats fasted overnight, 50 mg/kg oral with 1 g/kg glucose, liver 1 h after, GK controls 139.6): 66.4 | Expression level of liver ACL (cRNA hybridized to rat ACL gene), Analysis 2 ([2]; Experiment 2 group 5, GK rats fasted overnight, 50 mg/kg oral with 1 g/kg glucose, liver 1 h after, GK controls 452.5 / 416.7): 189.9 | Elevated liver ACL expression level ([2]; GK rats, Experiment 2, groups 3, 4 vs 5): significantly suppressed and returned to the normal level | Insulin level in portal vein [3]: transient increase | GOT value after administration ([4]; 5 cases with fatty liver and NASH-like liver troubles (GOT, GPT≧51 IU/L, GPT>GOT), reduced from 138.6±56.0): 83.6±41.5 IU/L | GPT value after administration ([4]; 5 cases with fatty liver and NASH-like liver troubles (GOT, GPT≧51 IU/L, GPT>GOT), reduced from 242.6±112.8): 57.8±59.2 IU/L | GOT, 12th week ([4]; analysis 1: 53 type 2 diabetes patients with fatty liver, 12 weeks oral, 0 week 58.4 ± 34.4): 33.8 ± 22.9 IU/L | GPT, 12th week ([4]; analysis 1: 53 type 2 diabetes patients with fatty liver, 12 weeks oral, 0 week 77.2 ± 55.9): 44.0 ± 29.7 IU/L | GOT, change (0 to 12 weeks) [4, 7]: 24.7 ± 12.4 IU/L | GPT, change (0 to 12 weeks) [4, 7]: 33.2 ± 31.0 IU/L | Level of GOT after administration compared with before [4, 8]: statistically significant lowered | Level of GPT after administration compared with before [4, 8]: statistically significant lowered | GOT, 12th week ([4]; analysis 2: 16 cases of type-2 diabetes with liver disorders (GOT, GPT≧51 IU/L), 0 week 133.3 ± 51.3): 85.4 ± 40.9 IU/L | GPT, 12th week ([4]; analysis 2: 16 cases of type-2 diabetes with liver disorders (GOT, GPT≧51 IU/L), 0 week 217.3 ± 94.1): 80.2 ± 53.4 IU/L | GOT, change (0 to 12 weeks) [4, 9]: 47.8 ± 37.9 IU/L | GPT, change (0 to 12 weeks) [4, 9]: 137.0 ± 43.4 IU/L | GOT before vs after administration [4, 10]: statistically significant lowering | GPT before vs after administration [4, 10]: statistically significant lowering | Alterations in liver function [5]: no significant alterations | Effect of hepatic cirrhosis on pharmacokinetics ([6]; J. Clin. Pharmacol. 40:634 (2000), Drugs 60(3):607 (2000)): no significant effect | Increase of total exposure ([6]; subjects with mild hepatic impairment (Am J Health-Syst Pharm 58, 285 (2001))): 30%
